This is an account of results in patent US11718618B2, “Substituted pyrido[2,1-a]isoquinolines as VMAT2 inhibitors” (priority 2021, dated 2023).

Structures are written as SMILES. pKi: −log10 of the molar value. Read-outs that look alike come from different tables or passages of the source.

One data set deals with human VMAT2 (Homo sapiens (Human), UniProt Q05940). Nature of the data set: VMAT2 radioligand binding, 3H-dihydrotetrabenazine competition on human platelet homogenate. The gist of the method: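 Human platelet homogenate (30 μg membrane protein/well) in DPBS with 1 mM EDTA, pH 7.4; twelve test-compound concentrations competed against 10 nM ³H-dihydrotetrabenazine. Incubated 90 min at 25 °C, bound radioligand collected by filtration on PEI-pretreated glass-fibre filters and counted by scintillation; Ki derived.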

Data set [1] in a line: Stability of compounds in human liver microsomes. The data set is classed as in vitro ADME. The following applies: for CLint scaled at 0.5 μM / half-life at 0.5 μM: both sexes, pH 7.4; for CLint scaled at 0.5 μM: liver microsomes, calculated from HLM half-life, read-out: HLM Scaled Intrinsic Clearance; for CLint scaled at 0.5 μM / Predicted Max. Bioavailability (% F) / HLM Predicted Systemic Clearance: human; for half-life at 0.5 μM: 0.5 μM compound, 0.5 mg/mL human liver microsomes, 37° C., maxed at 420 minutes, read-out: HLM Elimination half-life (t1/2, min); for Predicted Max. Bioavailability (% F): predicted from HLM data; for HLM Predicted Systemic Clearance: scaled from HLM half-life (Obach method). The gist of the method: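 Compound at 0.5 μM incubated at 37 °C with pooled mixed-gender human liver microsomes (0.5 mg/mL protein) and an NADPH-generating system in pH 7.4 phosphate buffer, sampled 0–60 min. Parent depletion tracked by LC-MS/MS; t1/2 derived from the slope by non-linear regression, with predicted extraction ratio and maximum bioavailability also calculated.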

The mark [2] stands for this setting: 10 nM 3H-dihydrotetrabenazine, human platelet homogenate, 25° C., 90 minutes, read-out: VMAT2 Ki.

human VMAT2, sequence (Q05940 whole entry): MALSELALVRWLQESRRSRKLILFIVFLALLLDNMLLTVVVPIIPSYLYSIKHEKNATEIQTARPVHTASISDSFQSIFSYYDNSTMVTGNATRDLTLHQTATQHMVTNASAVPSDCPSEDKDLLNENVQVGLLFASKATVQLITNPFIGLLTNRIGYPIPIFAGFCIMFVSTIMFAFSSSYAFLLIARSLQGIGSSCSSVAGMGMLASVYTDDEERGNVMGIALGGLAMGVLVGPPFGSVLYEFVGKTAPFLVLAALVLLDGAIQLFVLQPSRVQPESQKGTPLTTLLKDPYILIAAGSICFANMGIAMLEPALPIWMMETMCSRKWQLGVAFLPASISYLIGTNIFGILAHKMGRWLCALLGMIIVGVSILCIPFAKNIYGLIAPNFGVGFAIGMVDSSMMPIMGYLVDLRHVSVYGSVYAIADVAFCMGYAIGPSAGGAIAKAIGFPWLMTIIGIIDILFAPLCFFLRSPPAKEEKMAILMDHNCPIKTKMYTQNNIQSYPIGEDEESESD

For orientation: pKi means the Ki on a negative log10 scale, so that one unit is a factor of ten. Take `COc1cc2c(cc1OCc1ccccc1)CCN1C[C@@H](CC(C)(C)C)[C@H](O)C[C@H]21` [Compound 4-60, (2R,3R,11bR)-9-(benzyloxy)-3-(2,2-dimethylpropyl)-10-methoxy-1H,2H,3H,4H,6H,7H,11bH-pyrido[2,1-a]isoquinolin-2-ol]: the pKi at human VMAT2 (setting [2]) was 8.51. In data set [1], the CLint scaled at 0.5 μM was 33.9 mL/min/kg, the half-life at 0.5 μM came to 37 min, the “Predicted Max. Bioavailability (% F)” value is recorded as 37 % F and the “HLM Predicted Systemic Clearance” value is 12.58 mL/min/kg.
Turning to `CC[C@@H]1C[C@H]1COc1cc2c(cc1OC)[C@H]1C[C@@H](O)[C@H](CC(C)(C)C)CN1CC2` [Compound 4-90, (2R,3R,11bR)-3-(2,2-dimethylpropyl)-9-{[(1R,2R)-2-ethylcyclopropyl]methoxy}-10-methoxy-1H,2H,3H,4H,6H,7H,11bH-pyrido[2,1-a]isoquinolin-2-ol], the negative logarithm of the Ki (pKi) at human VMAT2 (setting [2]) is 9.54. For the same compound, in data set [1], the CLint scaled at 0.5 μM is 156 mL/min/kg, the half-life at 0.5 μM came out at 8 min, the “Predicted Max. Bioavailability (% F)” value is 11 % F and the “HLM Predicted Systemic Clearance” value was 17.72 mL/min/kg.
Regarding `COc1cc2c(cc1OCC1(F)COCCOC1)CCN1C[C@@H](CC(C)(C)C)[C@H](O)C[C@H]21` [Compound 4-72, (2R,3R,11bR)-3-(2,2-dimethylpropyl)-9-[(6-fluoro-1,4-dioxepan-6-yl)methoxy]-10-methoxy-1H,2H,3H,4H,6H,7H,11bH-pyrido[2,1-a]isoquinolin-2-ol], at human VMAT2 (setting [2]), the negative-log Ki (pKi) is 7.29. For the same compound, in data set [1], the CLint scaled at 0.5 μM was 15.6 mL/min/kg, the half-life at 0.5 μM was 80 min, the “Predicted Max. Bioavailability (% F)” value is given as 56 % F and the “HLM Predicted Systemic Clearance” value is 8.77 mL/min/kg.
The like results for `COc1cc2c(cc1OCC(C)(C)O)CCN1C[C@@H](CC(C)(C)C)[C@H](O)C[C@H]21` [Compound 4-47, (2R,3R,11bR)-3-(2,2-dimethylpropyl)-9-(2-hydroxy-2-methylpropoxy)-10-methoxy-1H,2H,3H,4H,6H,7H,11bH-pyrido[2,1-a]isoquinolin-2-ol] were, in that order, 7.82, not above 2.97 mL/min/kg, not below 420 min, not below 87 % F and not above 2.59 mL/min/kg.
Taken in the same sequence, the figures for `COc1cc2c(cc1OCC1(O)CCC(F)(F)CC1)CCN1C[C@@H](CC(C)(C)C)[C@H](O)C[C@H]21` [Compound 4-76, (2R,3R,11bR)-9-[(4,4-difluoro-1-hydroxycyclohexyl)methoxy]-3-(2,2-dimethylpropyl)-10-methoxy-1H,2H,3H,4H,6H,7H,11bH-pyrido[2,1-a]isoquinolin-2-ol] were 7.09, not above 2.97 mL/min/kg, not below 420 min, not below 87 % F and not above 2.59 mL/min/kg.
Consider `COc1cc2c(cc1OCCOC1(C#N)CCOCC1)CCN1C[C@@H](CC(C)(C)C)[C@H](O)C[C@H]21` [Compound 4-41, 4-(2-{[(2R,3R,11bR)-3-(2,2-dimethylpropyl)-2-hydroxy-10-methoxy-1H,2H,3H,4H,6H,7H,11bH-pyrido[2,1-a]isoquinolin-9-yl]oxy}ethoxy)oxane-4-carbonitrile], for which the pKi at human VMAT2 (setting [2]) was 6.62. In data set [1], the CLint scaled at 0.5 μM was 45.2 mL/min/kg, the half-life at 0.5 μM worked out at 28 min, the “Predicted Max. Bioavailability (% F)” value is listed as 31 % F and the “HLM Predicted Systemic Clearance” value is 13.87 mL/min/kg.
As to `COc1cc2c(cc1OCC1(C(F)F)CC1)CCN1C[C@@H](CC(C)(C)C)[C@H](O)C[C@H]21` [Compound 4-57, (2R,3R,11bR)-9-{[1-(difluoromethyl)cyclo-propyl]methoxy}-3-(2,2-dimethylpropyl)-10-methoxy-1H,2H,3H,4H,6H,7H,11bH-pyrido[2,1-a]isoquinolin-2-ol], the negative-log Ki (pKi) at human VMAT2 (setting [2]) was 9.03. Besides, in data set [1], the CLint scaled at 0.5 μM is not above 2.97 mL/min/kg, the half-life at 0.5 μM was not below 420 min, the “Predicted Max. Bioavailability (% F)” value is listed as not below 87 % F and the “HLM Predicted Systemic Clearance” value is not above 2.59 mL/min/kg.
`[2H]C([2H])([2H])Oc1cc2c(cc1OC)[C@H]1C[C@@H](O)[C@H](CC(C)(C)C)CN1CC2` [Compound 4-52, (2R,3R,11bR)-3-(2,2-dimethylpropyl)-9-(methoxy-d3)-10-methoxy-1H,2H,3H,4H,6H,7H,11bH-pyrido[2,1-a]isoquinolin-2-ol] showed a pKi on human VMAT2 of 8.60. In data set [1], the CLint scaled at 0.5 μM is not above 2.97 mL/min/kg, the half-life at 0.5 μM is not below 420 min, the “Predicted Max. Bioavailability (% F)” value is not below 87 % F and the “HLM Predicted Systemic Clearance” value is not above 2.59 mL/min/kg.
Regarding `COc1cc2c(cc1OC[C@@H](C)OC)CCN1C[C@@H](CC(C)(C)C)[C@H](O)C[C@H]21` [Compound 4-91, (2R,3R,11bR)-3-(2,2-dimethylpropyl)-10-methoxy-9-[(2R)-2-methoxypropoxy]-1H,2H,3H,4H,6H,7H,11bH-pyrido[2,1-a]isoquinolin-2-ol], the pKi on human VMAT2 (setting [2]) was 7.55. Moreover, in data set [1], the CLint scaled at 0.5 μM was 19.7 mL/min/kg, the half-life at 0.5 μM was 63 min, the “Predicted Max. Bioavailability (% F)” value is 50 % F and the “HLM Predicted Systemic Clearance” value is 9.92 mL/min/kg.
Taken in the same sequence, the figures for `COc1cc2c(cc1OCCC(F)(F)F)CCN1C[C@H](CC(C)(C)C)[C@@H](O)C[C@@H]21` [Compound 4-9, (2S,3S,11bS)-3-(2,2-dimethylpropyl)-10-methoxy-9-(3,3,3-trifluoropropoxy)-1H,2H,3H,4H,6H,7H,11bH-pyrido[2,1-a]isoquinolin-2-ol] were 6.56, not above 2.97 mL/min/kg, not below 420 min, not below 87 % F and not above 2.59 mL/min/kg.
In turn, `CC[C@@H](O)COc1cc2c(cc1OC)[C@H]1C[C@@H](O)[C@H](CC(C)(C)C)CN1CC2` [Compound 4-58, (2R,3R,11bR)-3-(2,2-dimethylpropyl)-9-[(2R)-2-hydroxybutoxy]-10-methoxy-1H,2H,3H,4H,6H,7H,11bH-pyrido[2,1-a]isoquinolin-2-ol] gave a pKi on human VMAT2 of 8.96. For the same compound, in data set [1], the CLint scaled at 0.5 μM is 5.99 mL/min/kg, the half-life at 0.5 μM was 208 min, the “Predicted Max. Bioavailability (% F)” value was 77 % F and the “HLM Predicted Systemic Clearance” value is 4.61 mL/min/kg.
For `COc1cc2c(cc1OCC(C)(O)C(F)(F)F)CCN1C[C@@H](CC(C)(C)C)[C@H](O)C[C@H]21` (stereo partly drawn) [Compound 4-66, (2R,3R,11bR)-3-(2,2-dimethylpropyl)-10-methoxy-9-(3,3,3-trifluoro-2-hydroxy-2-methylpropoxy)-1H,2H,3H,4H,6H,7H,11bH-pyrido[2,1-a]isoquinolin-2-ol], the pKi on human VMAT2 (setting [2]) was 8.00. Moreover, in data set [1], the CLint scaled at 0.5 μM is not above 2.97 mL/min/kg, the half-life at 0.5 μM was not below 420 min, the “Predicted Max. Bioavailability (% F)” value is not below 87 % F and the “HLM Predicted Systemic Clearance” value was not above 2.59 mL/min/kg.
In the case of `COc1cc2c(cc1OCC(O)COCC(F)(F)F)CCN1C[C@@H](CC(C)(C)C)[C@H](O)C[C@H]21` (some centres unmarked) [Compound 4-79], the pKi on human VMAT2 (setting [2]) is 7.00. For the same compound, in data set [1], the CLint scaled at 0.5 μM is 5.88 mL/min/kg, the half-life at 0.5 μM turned out to be 212 min, the “Predicted Max. Bioavailability (% F)” value is listed as 77 % F and the “HLM Predicted Systemic Clearance” value is 4.54 mL/min/kg.
As for `COc1cc2c(cc1OCc1ccc(F)cc1)CCN1C[C@@H](CC(C)(C)C)[C@H](O)C[C@H]21` [Compound 4-63, (2R,3R,11bR)-3-(2,2-dimethylpropyl)-9-[(4-fluorophenyl)methoxy]-10-methoxy-1H,2H,3H,4H,6H,7H,11bH-pyrido[2,1-a]isoquinolin-2-ol], the pKi at human VMAT2 (setting [2]) was 8.38. Further, in data set [1], the CLint scaled at 0.5 μM was 42.3 mL/min/kg, the half-life at 0.5 μM is 29 min, the “Predicted Max. Bioavailability (% F)” value is reported as 32 % F and the “HLM Predicted Systemic Clearance” value was 13.58 mL/min/kg.
The like results for `COc1cc2c(cc1OCC1CC1(F)F)CCN1C[C@@H](CC(C)(C)C)[C@H](O)C[C@H]21` (stereo partly drawn) [Compound 4-121, (2R,3R,11bR)-9-[(2,2-difluorocyclopropyl)methoxy]-3-(2,2-dimethylpropyl)-10-methoxy-1H,2H,3H,4H,6H,7H,11bH-pyrido[2,1-a]isoquinolin-2-ol] were, in that order, 9.09, 4.46 mL/min/kg, 280 min, 82 % F and 3.64 mL/min/kg.
As for `COc1cc2c(cc1OCCCF)CCN1C[C@@H](CC(C)(C)C)[C@H](O)C[C@H]21` [Compound 4-28, (2R,3R,11bR)-3-(2,2-dimethylpropyl)-9-(3-fluoropropoxy)-10-methoxy-1H,2H,3H,4H,6H,7H,11bH-pyrido[2,1-a]isoquinolin-2-ol], at human VMAT2 (setting [2]), the negative logarithm of the Ki (pKi) was 9.32. Besides, in data set [1], the CLint scaled at 0.5 μM was 31.8 mL/min/kg, the half-life at 0.5 μM was found to be 39 min, the “Predicted Max. Bioavailability (% F)” value is on record as 39 % F and the “HLM Predicted Systemic Clearance” value was 12.28 mL/min/kg.
